Experimental findings from paper PMC10724200, “A peptide derived from interleukin-10 exhibits potential anticancer activity and can facilitate cell targeting of gold nanoparticles loaded with anticancer therapeutics” (Communications Chemistry, 2023) are described below.

Ends that are not written are not given here.

In experiment [1] the target is T1, recombinant receptor human IL-10Ra protein (Homo sapiens, UniProt Q13651).
T1 sequence (Q13651 22-578): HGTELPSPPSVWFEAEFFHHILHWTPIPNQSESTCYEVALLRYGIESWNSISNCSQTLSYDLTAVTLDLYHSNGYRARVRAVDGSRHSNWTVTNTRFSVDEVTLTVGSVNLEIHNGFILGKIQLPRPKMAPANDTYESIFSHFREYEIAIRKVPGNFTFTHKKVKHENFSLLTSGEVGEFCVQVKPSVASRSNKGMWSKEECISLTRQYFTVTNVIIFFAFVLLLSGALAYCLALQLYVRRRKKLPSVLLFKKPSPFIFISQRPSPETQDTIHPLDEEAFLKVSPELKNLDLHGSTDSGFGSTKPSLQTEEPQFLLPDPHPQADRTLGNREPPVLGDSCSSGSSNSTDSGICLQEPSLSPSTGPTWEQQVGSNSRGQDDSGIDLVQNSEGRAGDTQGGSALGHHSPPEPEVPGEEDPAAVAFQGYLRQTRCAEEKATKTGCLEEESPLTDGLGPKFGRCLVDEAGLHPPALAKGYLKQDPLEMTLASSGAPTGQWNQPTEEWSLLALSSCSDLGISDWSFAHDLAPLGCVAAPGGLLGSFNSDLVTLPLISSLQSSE
The experiment in a line: Biolayer interferometry kinetic assay, binding to IL-10Ra. The note with it: read-out: ka (association constant). As to the method: (§1) Biolayer interferometry (BLI) was applied to analyze peptide–receptor protein interactions. BLI was performed with a ForteBio Octet RED96e System (Sartorius AG, Göttingen, Germany) by using high-precision streptavidin and biosensors. The biosensors were hydrated in a plate for 15 min and then loaded with 10 μg/mL recombinant receptor human IL-10Ra protein and incubated for 150 s. […] After the association step, the biosensor was shifted to the dissociation buffer, phosphate-buffered saline (PBS) with 0.05% Tween20, for dissociation. Dissociation was recorded until equilibrium was reached (120 s).
To measure the binding ability of the designed and negative control peptides (NM25, NK20, NK20a, and control scramble peptide CG20) to the receptor IL-10Ra in vitro, BLI experiments were performed. […] When binding with IL-10Ra, the association constant (ka) of NK20 and NK20a was 1.02 × 10^4 (1/Ms) and 8.14 × 10^3 (1/Ms), respectively. The ka values of the refined peptides were approximately 12-fold higher than that of NM25. […] The equilibrium dissociation constant (KD) of NK20a interactions with IL-1R1was approximately 2000 times greater than that with IL-10Ra, and the calculated dissociation constant of NK20a interactions with IL-1R1 was to be 5000 times greater than that with IL-10Ra interactions (Table 2). […] As a result, NK20a was used for further investigations in this study.
Fig. 3 BLI kinetic assays of the designed peptides binding to the receptor IL-10Ra. Wavelength shift curves show the association and dissociation of the designed peptides (a) NM25, (b) NK20, (c) NK20a, (d) CG20 binding to the IL-10 receptor, and (e) NK20a binding to a control receptor IL-1R1 at various concentrations. Dissociation was recorded at 120 s after the binding started (black dotted line).

A further experiment deals with T2, IL-1R1 (Homo sapiens, UniProt P14778).
T2 sequence (P14778 18-569): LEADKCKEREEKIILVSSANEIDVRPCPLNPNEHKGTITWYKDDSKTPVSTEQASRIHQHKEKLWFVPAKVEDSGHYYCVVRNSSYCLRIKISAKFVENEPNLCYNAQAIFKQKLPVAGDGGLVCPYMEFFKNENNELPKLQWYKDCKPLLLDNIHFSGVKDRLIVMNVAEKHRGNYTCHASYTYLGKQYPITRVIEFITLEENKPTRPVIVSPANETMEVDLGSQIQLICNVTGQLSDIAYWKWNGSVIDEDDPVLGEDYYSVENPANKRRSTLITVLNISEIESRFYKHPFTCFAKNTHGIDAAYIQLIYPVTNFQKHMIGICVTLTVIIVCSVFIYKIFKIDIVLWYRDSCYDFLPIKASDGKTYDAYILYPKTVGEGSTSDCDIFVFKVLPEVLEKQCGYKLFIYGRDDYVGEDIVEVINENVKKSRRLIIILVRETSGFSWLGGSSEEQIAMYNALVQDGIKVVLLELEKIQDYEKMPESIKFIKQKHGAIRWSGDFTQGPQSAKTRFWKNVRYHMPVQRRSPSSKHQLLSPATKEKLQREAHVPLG
The experiment in a line: Biolayer interferometry kinetic assay, binding to control receptor IL-1R1. The note with it: read-out: ka (association constant). As for the experimental part:
as §1
To measure the binding ability of the designed and negative control peptides (NM25, NK20, NK20a, and control scramble peptide CG20) to the receptor IL-10Ra in vitro, BLI experiments were performed. […] When binding with IL-10Ra, the association constant (ka) of NK20 and NK20a was 1.02 × 10^4 (1/Ms) and 8.14 × 10^3 (1/Ms), respectively. […] The equilibrium dissociation constant (KD) of NK20a interactions with IL-1R1was approximately 2000 times greater than that with IL-10Ra, and the calculated dissociation constant of NK20a interactions with IL-1R1 was to be 5000 times greater than that with IL-10Ra interactions (Table 2). […]
Fig. 3 BLI kinetic assays of the designed peptides binding to the receptor IL-10Ra. […] Dissociation was recorded at 120 s after the binding started (black dotted line).

As to NMLRNLRNAFSRVKTFFQMK [NK20a], the kon turned out to be 8140 M⁻¹ s⁻¹ in experiment [1] and 18300 M⁻¹ s⁻¹ on IL-1R1.
